Values quoted from earlier work, collected in PubChem BioAssay AID1259410 (Chemical Carcinogenesis Research Information System (CCRIS), 2018).

Tested on: rodent tumor promotion studies, tumor incidence
Experiment: CCRIS tumor promotion studies
Settings: Route [Promoter]: ORAL

In the case of `CCC1(c2ccccc2)C(=O)NC(=O)NC1=O`, the outcome (Carcinogen: DIMETHYLNITROSAMINE, 62-75-9, Doses [Carcinogen]: 5 UG/G ONCE, Doses [Promoter]: 0, 500 PPM IN THE DRINKING WATER FOR 24 WK BEGINNING POST CARCINOGEN DOSE (STUDY DURATION: 26 WK), Route [Carcinogen]: INTRAPERITONEAL, Species: MOUSE, Strain/Sex: B6C3F1/MALE) is listed as “liver: adenoma”, the outcome (Carcinogen: METHYL(ACETOXYMETHYL)NITROSAMINE, 56856-83-8, Doses [Carcinogen]: 0.05 MMOL/KG IN 5 ML STERILE PHOSPHATE BUFFER ONCE, Doses [Promoter]: 0, 500 PPM IN DRINKING WATER BEGINNING 2 WK POST CARCINOGEN DOSE AND CONTINUING FOR 78 WK (STUDY DURATION: 80 WK), Route [Carcinogen]: INTRAPERITONEAL, Species: RAT, Strain/Sex: F344/MALE) is listed as “thyroid: follicular cell adenoma or follicular cell carcinoma or c-cell tumor; l” and the outcome (Carcinogen: METHYLNITROSOUREA, Doses [Carcinogen]: 20 MG/KG 2/WK FOR 4 WK, Doses [Promoter]: 0.05% IN DIET FOR 32 WK, Route [Carcinogen]: INTRAPERITONEAL, Species: RAT, Strain/Sex: F344/MALE) is listed as “thyroid gland: adenocarcinoma”. For the same compound, the outcome (Carcinogen: N,N-DIETHYLNITROSAMINE, 55-18-5, Doses [Carcinogen]: 75 MG/KG IN SALINE ONCE AT 5 WK OF AGE, Doses [Promoter]: 0, 500 PPM IN DIET FOR 45 WK BEGINNING 2 WK POST CARCINOGEN TREATMENT (STUDY DURATION: 47 WK), Route [Carcinogen]: INTRAPERITONEAL, Species: RAT, Strain/Sex: F344/MALE) was “liver: hepatocellular adenoma”, the outcome (Carcinogen: N,N-DIETHYLNITROSAMINE, 55-18-5, Doses [Carcinogen]: 75 MG/KG IN SALINE ONCE AT 5 WK OF AGE, Doses [Promoter]: 0, 500 PPM IN DIET FOR 46-72 WK BEGINNING 2 WK POST CARCINOGEN TREATMENT (STUDY DURATION: 46-72 WK), Route [Carcinogen]: INTRAPERITONEAL, Species: RAT, Strain/Sex: F344/MALE) was “liver: hepatocellular adenoma” and the outcome (Carcinogen: N-BIS(2-HYDROXYPROPYL)NITROSAMINE, Doses [Carcinogen]: 70 MG/100 G BW 1/WK FOR 4 OR 6 WK, Doses [Promoter]: 500 PPM IN DIET FROM WK 5-16 OR 7-18, Route [Carcinogen]: SUBCUTANEOUS, Species: RAT, Strain/Sex: WISTAR/MALE) was “thyroid gland: follicular, papillary, and solid adenoma, carcinoma”. For the same compound, the outcome (Carcinogen: N-METHYL-N-NITROSOUREA, 684-93-5, Doses [Carcinogen]: 30 MG/KG BW ONCE AT 3 MO OF AGE, Doses [Promoter]: 0, 50 MG/100 G IN DIET FOR 7 MO BEGINNING 7 MO POST CARCINOGEN DOSE (STUDY DURATION: 14 MO), Route [Carcinogen]: INTRAVENOUS, Species: RAT, Strain/Sex: LOBUND-WISTAR/MALE) was “prostate/seminal vesicle: adenocarcinoma”, the outcome (Carcinogen: N-METHYL-N-NITROSOUREA, 684-93-5, Doses [Carcinogen]: 30 MG/KG BW ONCE, Doses [Promoter]: 0, 0.5% IN DIET FOR DURATION OF STUDY BEGINNING POST CARCINOGEN DOSE(STUDY DURATION: 14 MO), Route [Carcinogen]: INTRAVENOUS, Species: RAT, Strain/Sex: LOBUND-WISTAR/MALE) was “lung: carcinoma, prostate/seminal vesicles: tumor” and the outcome (Carcinogen: N-NITROSODIETHYLAMINE, 55-18-5, Doses [Carcinogen]: 5 UG/G BW ONCE AT 15 D OF AGE, Doses [Promoter]: 0, 500 PPM IN DRINKING WATER BEGINNING AT 4 WK OF AGE AND CONTINUING FOR DURATION OF STUDY (STUDY DURATION: 28 WK), Route [Carcinogen]: INTRAPERITONEAL, Species: MOUSE, Strain/Sex: C3H/HENCR/FEMALE) was “liver: hepatocellular adenoma”. The outcome (Carcinogen: N-NITROSODIETHYLAMINE, 55-18-5, Doses [Carcinogen]: 5 UG/G BW ONCE AT 15 D OF AGE, Doses [Promoter]: 0, 500 PPM IN DRINKING WATER BEGINNING AT 4 WK OF AGE AND CONTINUING FOR DURATION OF STUDY (STUDY DURATION: 28 WK), Route [Carcinogen]: INTRAPERITONEAL, Species: MOUSE, Strain/Sex: C3H/HENCR/MALE) was “liver: hepatocellular adenoma”, the outcome (Carcinogen: N-NITROSODIETHYLAMINE, 55-18-5, Doses [Carcinogen]: 75 MG IN STERILE SALINE ONCE, Doses [Promoter]: 0, 500 PPM IN DIET BEGINNING 2 WK POST CARCINOGEN DOSE AND CONTINUING FOR DURATION OF STUDY (STUDY DURATION: 78 WK), Route [Carcinogen]: INTRAPERITONEAL, Species: RAT, Strain/Sex: F344/MALE) was “liver: hepatocellular adenoma or carcinoma; thyroid gland: follicular cell adeno” and the outcome (Carcinogen: N-NITROSODIETHYLAMINE, 55-18-5, Doses [Carcinogen]: 75 MG ONCE, Doses [Promoter]: 0, 500 PPM IN DRINKING WATER BEGINNING 2 WK POST CARCINOGEN DOSE AND CONTINUING FOR DURATION OF STUDY (STUDY DURATION: 5, Route [Carcinogen]: INTRAPERITONEAL, Species: RAT, Strain/Sex: F344/MALE) was “liver: hepatocellular adenoma”. The outcome (Carcinogen: N-NITROSODIETHYLAMINE, 55-18-5, Doses [Carcinogen]: 75 MG ONCE, Doses [Promoter]: 0, 500 PPM IN DRINKING WATER BEGINNING 2 WK POST CARCINOGEN DOSE AND CONTINUING FOR DURATION OF STUDY (STUDY DURATION: 7, Route [Carcinogen]: INTRAPERITONEAL, Species: RAT, Strain/Sex: F344/MALE) was “liver: hepatocellular carcinoma; thyroid gland: follicular cell adenoma or adeno”, the outcome (Carcinogen: N-NITROSODIETHYLAMINE, 55-18-5, Doses [Carcinogen]: 90 MG/KG BW ONCE, Doses [Promoter]: 0, 500 PPM IN DIET FOR 53 WK BEGINNING 2 WK POST CARCINOGEN DOSE (STUDY DURATION: 55 WK), Route [Carcinogen]: INTRAPERITONEAL, Species: MOUSE, Strain/Sex: D2B6F1/MALE) was “liver: hepatocellular adenoma, hepatocellular carcinoma, hepatoblastoma” and the outcome (Carcinogen: N-NITROSODIETHYLAMINE, 7119-92-8, Doses [Carcinogen]: 80 MG/KG ONCE, Doses [Promoter]: 0, 500 PPM IN DIET BEGINNING 1 WK POST CARCINOGEN DOSE AND CONTINUING FOR 168 D (STUDY DURATION: 259 D), Route [Carcinogen]: INTRAPERITONEAL, Species: MOUSE, Strain/Sex: B6C3F1/MALE) was “liver: hepatocellular adenoma or carcinoma”. For the same compound, the outcome (Carcinogen: TAMOXIFEN, 10540-29-1, Doses [Carcinogen]: 420 PPM IN DIET FOR 3 MO, Doses [Promoter]: 0, 0.1% (W/V) IN DRINKING WATER FOR LIFE BEGINNING POST CARCINOGEN TREATMENT (STUDY DURATION: LIFETIME), Route [Carcinogen]: ORAL, Species: RAT, Strain/Sex: WISTAR/FEMALE) was “liver: tumor”.
